The test system of one test is female Long Evans rats. As to the kind of experiment: Acoustic startle response (ASR). The class given is in vivo, rat. Conditions: for decrease of peak ASR: diestrous and sham controls. How it is done:
Animals were tested in a stabilimeter device (SR-Lab Startle Response System, San Diego Instruments, Inc., San Diego, Calif.) that permits vertical movement of a Plexiglas platform contained within a lit, well-ventilated sound-attenuating chamber (26). The amplitude of movement is detected by a piezoelectric device with a voltage output proportional to platform displacement. The analog output of the accelerometer is then amplified and digitized before computer analysis. Five minutes after i.p. administration of 10% ethanol (0.05-1.6 g/kg) or saline vehicle (1.5 ml volume) or 25 minutes after 4,5,6,7-tetrahydroisoxazolo[5,4-c]pyridin-3-ol injection (3 mg/kg, i.p.), animals were placed in the chamber for a 5 minutes acclimation period. […] Four acoustic stimuli (116 dB, 40 ms duration) were then presented at random intervals once every 10-15 seconds via a white-noise generator through speakers positioned on either side of the cage. […] For each acoustic stimulus, the amplitude and integrated response (amplitude and duration) were determined and normalized to the weight of the animal. Values for the integrated response after administration of each dose of ethanol or 4,5,6,7-tetrahydroisoxazolo[5,4-c]pyridin-3-ol were averaged and expressed as a fraction of the saline control average for the indicated treatment (progesterone withdrawal versus control) group in order to minimize variability between groups. […] It is also routinely used to assess behavioral excitability after withdrawal from BDZs and ethanol (73).
Animals were tested in a stabilimeter device (SR-Lab Startle Response System, San Diego Instruments, Inc.) that permitted vertical movement of a Plexiglas cage contained within a lit, well-ventilated, sound-attenuating chamber. The amplitude of movement was detected by a piezoelectric device with a voltage output proportional to cage displacement. The analog output of the accelerometer was amplified and digitized before computer analysis (15). Five minutes following intraperitoneal administration of alcohol (0.2 or 0.4 g/kg) or saline vehicle (1.5 ml volume), animals were placed in the chamber for 5 a minute acclimation period. Five acoustic stimuli (116 dB, 40 msec duration) were then presented once every 10-15 seconds via a white-noise generator through speakers positioned on either side of the cage. For each acoustic stimulus, the integrated response (amplitude and duration) was averaged across a 100 msec post-stimulus time period and the response latency determined. Both values were normalized to the weight of the animal. Values for the integrated response for the first noise stimulus following administration of each dose of alcohol were averaged and expressed as a fraction of the saline control average for the indicated treatment (P Wd versus control) group. […] It is routinely used to assess behavioral excitability following withdrawal from benzodiazepiness (48) and alcohol (73), and is known to be modified by GABA modulators, such as diazepam (11), and by local infusion of excitatory compounds into dorsal hippocampus (85).

The subject of test [1] is GABAA receptors of acutely isolated CA1 hippocampal pyramidal cells. The test can be described thus: Whole cell patch clamp, ethanol or THIP effect on GABA-gated current. Type of test: cell-based, rat. Conditions: for potentiation of GABA-gated currents: progesterone-withdrawal model; for potentiation of GABA-gated responses: after progesterone withdrawal. How it is done: Pyramidal neurons were acutely dissociated from CA1 hippocampus and GABA-gated Cl^− currents analyzed using whole cell patch clamp procedures as previously described (67). Briefly, tissue was digested at 32° C. for 50-60 minutes under 100% O2 in PIPES-buffered saline containing (in mM): NaCl 120, KCl 5, CaCl2 1, MgCl2 1, D-glucose 25, PIPES 20 and trypsin (type XI, sigma) 0.8 mg/ml, pH 7.0. After 1 hour of enzyme-free incubation at room temperature, tissue was dissociated by trituration in 1 ml of 20 mM HEPES-buffered DMEM which was replaced by recording medium after transfer to the recording chamber. GABA-gated currents were recorded at room temperature (20-25° C.) at a holding potential of −50 mV in a bath containing (in mM): NaCl 120, CsCl 5, CaCl2 2, MgCl2 1, TEA Cl 15, 4-aminopyridine 5, HEPES 10 and glucose 25, pH 7.4, 320 mOsm/kg H2O. The pipette solution contained (in mM): N-methyl-D-glucamine chloride 120, Cs4BAPTA 5 and Mg-ATP 5. The ATP regeneration system Tris phosphocreatine (20 mM) and creatine kinase were added to minimize GABA rundown. All drugs were obtained from Sigma Chemical Co, (St. Louis, Mo.), except for BAPTA (Calbiochem, San, Diego, Calif.).
Peak currents were calculated for all drug concentrations as relative to the current gated by 10 μM GABA alone using the equation: ([peak current: GABA+ETOH]−[peak current: GABA alone])/[peak current: GABA alone]. Currents were recorded using an Axopatch 1D amplifier (Axon Instruments) filtered at 2 kHz (four-pole Bessel filter) and detected at 500 Hz (pClamp 5.1).
Following progesterone withdrawal or control conditions, pyramidal cells were acutely isolated from CA1 hippocampus as described (65,64). GABA-gated Cl^− currents were recorded using whole cell patch clamp techniques at a holding potential of −50 mV.
On the technique in general: The patch-clamp technique gives a direct electrical read-out from membranes.

For the compound `CCO` [ethanol], in the test on female Long Evans rats (alcohol 0.2-0.4 g/kg in vivo, after progesterone withdrawal (Example III)), the “effect on acoustic startle response” value is listed as “decreased the acoustic startle response”. Besides, the “effect on ASR” value is recorded as “equally ineffective” with female Long Evans rats (ethanol 0.05 g/kg i.p., P withdrawal and diestrous control animals); “ineffective” in the test on female Long Evans rats (ethanol 0.8-1.2 g/kg i.p., P withdrawn animals); “significantly decreased” in the test with female Long Evans rats (ethanol 0.8-1.2 g/kg i.p., both control groups); “decreased the ASR” with female Long Evans rats (ethanol 1.6 g/kg i.p., P withdrawal and diestrous control animals). Besides, in the test with female Long Evans rats (ethanol 0.2-0.4 g/kg i.p., after P withdrawal), the “attenuation of average peak and integrated startle responses” value is recorded as “about 70%”. Besides, the “attenuation of startle responses” value in the test on female Long Evans rats (ethanol 0.2-0.4 g/kg i.p., diestrous and sham control animals) was “not observed”. For the same compound, the entries for the “decrease of peak ASR” value in the test with female Long Evans rats (ethanol 0.2 g/kg) and with female Long Evans rats (ethanol 0.8 g/kg) were “ineffective” and “effective”, respectively. Besides, the “GABA-modulatory effects of alcohol” value in test [1] (1 mM alcohol, progesterone withdrawal with α4 expression suppressed) was “prevented”. In addition, the “potentiation of GABA-gated currents” value is on record as 81±21% in test [1] (1 mM alcohol); “not as effective” in test [1] (10 mM and greater alcohol). For the same compound, the “potentiation of GABA-gated responses” value in test [1] (3 mM ethanol with 10 μM GABA) is recorded as 75±10%; in test [1] (20 mM ethanol), “ineffective”. For the same compound, in test [1] (3 or 20 mM ethanol, cells from control animals), the “effect on GABA responses” value is reported as “neither concentration produced an effect”.

Source of the values: patent publication US7816074B2, “α4 β2 δGABA-A receptors as a strategy for PMS and alcoholism” (priority 2003, dated 2010).
